Experimental data published in US20250034182A1, “PHOSPHOLIPID COMPOUNDS AND METHODS OF MAKING AND USING THE SAME” (priority 2021, published 2025).
Like-named read-outs stand apart in the source and are kept apart here.

Legend:
Assay type in all cases: cell-based
[1] = tested on: Respiratory syncytial virus recombinant with luciferase (RSV-Luc5) in NHBE cells; experiment: NHBE RSV-Luc5 384-well assay (EC50 RSVFLUC NHBE-384, Example U); conditions: human respiratory syncytial virus, 72 h, read-out: RSV FLuc NHBE 384 EC50 (v2) (nM) (per Ex. U)
How it was run: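 Passage-2 NHBE cells (5,000/well) on pre-spotted compounds, 10-point 1:3 series, infected with RSV-Luc5 at MOI 1 and incubated 3 days at 37° C. Replication read by One-Glo luminescence, normalized to remdesivir (0%) and DMSO (100%); EC50 = concentration reducing replication by 50%, by non-linear regression.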

[2] = tested on: dengue virus type 2 in Huh7 hepatoblastoma cells; experiment: Dengue Virus-2 Huh-7 EC50 (Example W); conditions: MOI of 0.07, CPE, neutral red dye, read-out: Dengue Virus-2 Huh-7 EC50 (nM) (per Ex. W)
Experimental: Huh7 hepatoblastoma cells were seeded onto 96-well plates and incubated at 37° C. with 5% CO2 overnight. The plates were seeded at a cell concentration that will yield >70% confluent monolayers in each well after overnight incubation. Eight 3-fold serial dilutions of compounds were diluted in test media (MEM supplemented with 2% FBS and 50 μg/mL gentamicin). The highest test compound concentration was 50 μg/mL. 100 μL of each concentration was added to 5 test wells on the 96-well plate. Of these 5 test wells, 3 wells of each dilution were infected with dengue virus type 2, diluted in test media (approximately 2000 CCID50 per well for an MOI of 0.07). Test medium (100 μL) with no virus was added to 2 wells to represent the uninfected cytotoxicity controls. Six additional infected wells received 100 μL media alone as untreated virus controls. Further, 100 μL of media alone was added to 6 uninfected wells to serve as uninfected, untreated controls. Cultures were incubated at 37° C.+5% CO2 until >80% CPE is observed. After cytopathic effect (CPE) is observed microscopically, 0.011% neutral red dye was added for approximately 2 hours. The neutral red dye was removed and wells were rinsed once with PBS to remove residual, unincorporated dye. A 50:50 Sorensen citrate buffer/ethanol solution was added and incubated at room temperature for >30 minutes with agitation, followed by measurement of neutral red dye using a spectrophotometer at 540 nm. The resulting optical density measurement was converted to percent signal of the infected, untreated cell control normalizing to virus controls. EC50 and CC50 values were determined by linear regression analysis.

[3] = tested on: HCV Replicon 2A; experiment: HCV Replicon 2A EC50 (Example Q); conditions: Hepatitis C virus, 72 h, read-out: HCV Replicon 2A EC50 (nM) (per Ex. Q)
Experimental: (§1) Compounds were serially diluted in ten steps of 1:3 dilutions in 384-well plates. All serial dilutions were performed in four replicates per compound within the same 384-well plate. An HCV protease inhibitor ITMN-191 at […] was added as a control of 100% inhibition of HCV replication while puromycin at 10 mM was included as a control of 100% cytotoxicity. To each well of a black polystyrene 384-well plate (Greiner Bio-one, Monroe, NC), 90 μL of cell culture medium (without Geneticin) containing 2000 suspended HCV replicon cells was added with a Biotek μFlow workstation. For compound transfer into cell culture plates, 0.4 μL of compound solution from the compound serial dilution plate was transferred to the cell culture plate on a Biomek FX workstation. The DMSO concentration in the final assay wells was 0.44%. The plates were incubated for 3 days at 37° C. with 5% CO2 and 85% humidity. The HCV replicon assay was a multiplex assay, able to assess both cytotoxicity and antireplicon activity from the same well. The CC50 assay was performed first. The media in the 384-well cell culture plate was aspirated, and the wells were washed four times with 100 μL of PBS each, using a Biotek ELX405 plate washer. A volume of 50 μL of a solution containing 400 nM calcein AM (Anaspec, Fremont, CA) in 1×PBS was added to each well of the plate with a Biotek μFlow workstation. The plate was incubated for 30 min at room temperature before the fluorescence signal (excitation 490 nm, emission 520 nm) was measured with a Perkin-Elmer Envision plate reader. The EC50 assay was performed in the same wells as the CC50 assay. The calcein-PBS solution in the 384-well cell culture plate was aspirated with a Biotek ELX405 plate washer. A volume of 20 μL of Dual-Glo luciferase buffer (Promega, Madison, WI) was added to each well of the plate with a Biotek μFlow Workstation. The plate was incubated for 10 min at room temperature. A volume of 20 μL of a solution containing a 1:100 mixture of Dual-Glo Stop & Glo substrate (Promega, Madison, WI) and Dual-Glo Stop & Glo buffer (Promega, Madison, WI) was added to each well of the plate with a Biotek μFlow Workstation. The plate was then incubated at room temperature for 10 min before the luminescence signal was measured with a Perkin-Elmer Envision Plate Reader.

[4] = tested on: HCV Replicon 1B; experiment: HCV Replicon 1B EC50 (Example Q); conditions: Hepatitis C virus, 72 h, read-out: HCV Replicon 1B EC50 (nM) (per Ex. Q)
Experimental: as §1

[5] = RSV HEP2-CC50-384-V2 (per Ex. V); conditions: human
[6] = HCV replicon cells, 3 days, Dual-Glo luciferase

| Compound | EC50 [1] [nM] | EC50 [2] [nM] | EC50 [3] [nM] | EC50 [4] [nM] | CC50 at 3 days [5] [µM] | EC50 [3, 6] [nM] | EC50 [4, 6] [nM] |
| --- | --- | --- | --- | --- | --- | --- | --- |
| CCCCCCCCCCCCCCCCCCC[C@H](COP(=O)(O)OC[C@@]1(C#N)O[C@@H](c2ccc3c(N)ncnn23)[C@H](O)[C@@H]1O)OCc1ccc(-n2cncn2)c(C#N)c1 [Compound 30, ((2R,3S,4R)-5-(4-aminopyrrolo[2,1-f][1,2,4]triazin-7-yl)-2-cyano-3,4-dihydroxytetrahydrofuran-2-yl)methyl ((R)-2-((3-cyano-4-(1H-1,2,4-triazol-1-yl)benzyl)oxy)henicosyl) hydrogen phosphate] | 14 | 1200 | 15800 | 3990 | 33.1 |  |  |
| CCCCCCCCCCCCCCCCCCCC[C@H](COP(=O)(O)OC[C@@]1(C#N)O[C@@H](c2ccc3c(N)ncnn23)[C@H](O)[C@@H]1O)Oc1cccc(C#N)c1 [Compound 51, ((2R,3S,4R,5S)-5-(4-aminopyrrolo[2,1-f][1,2,4]triazin-7-yl)-2-cyano-3,4-dihydroxytetrahydrofuran-2-yl)methyl ((R)-2-(3-cyanophenoxy)docosyl) hydrogen phosphate] | 56 | 11000 |  |  | > 46.2 | 19200 | 14600 |
| CCCCCCCCCCCCCCCCCCOC[C@H](COP(=O)(O)OC[C@@]1(C#N)O[C@@H](c2ccc3c(N)ncnn23)[C@H](O)[C@@H]1O)OCc1ccc(C#N)cc1OC [Compound 73, ((2R,3S,4R)-5-(4-aminopyrrolo[2,1-f][1,2,4]triazin-7-yl)-2-cyano-3,4-dihydroxytetrahydrofuran-2-yl)methyl ((R)-2-((4-cyano-2-methoxybenzyl)oxy)-3-(octadecyloxy)propyl) hydrogen phosphate] | 10 | 9500 |  |  | > 47 | 20400 | 15900 |
| CCCCCCCCCCCCCCCCCCCC[C@@H](COP(=O)(O)OC[C@@]1(C#N)O[C@@H](c2ccc3c(N)ncnn23)[C@H](O)[C@@H]1O)OCc1cc(F)cc(C#N)c1 [Compound 70, ((2R,3S,4R)-5-(4-aminopyrrolo[2,1-f][1,2,4]triazin-7-yl)-2-cyano-3,4-dihydroxytetrahydrofuran-2-yl)methyl ((S)-2-((3-cyano-5-fluorobenzyl)oxy)docosyl) hydrogen phosphate] | 165 | 12000 | 25200 | 19600 | 43.5 |  |  |
| CCCCCCCCCCCCCCCCCCOC[C@H](COP(=O)(O)OC[C@@]1(C#N)O[C@@H](c2ccc3c(N)ncnn23)[C@H](O)[C@@H]1O)Oc1cccc(C#N)n1 [Compound 21, ((2R,3S,4R,5S)-5-(4-aminopyrrolo[2,1-f][1,2,4]triazin-7-yl)-2-cyano-3,4-dihydroxytetrahydrofuran-2-yl)methyl ((R)-2-((6-cyanopyridin-2-yl)oxy)-3-(octadecyloxy)propyl) hydrogen phosphate] | 29 |  |  |  | 39.7 | 19200 | 13300 |
| CCCCCCCCCCCCCCCC[C@H](COP(=O)(O)OC[C@@]1(C#N)O[C@@H](c2ccc3c(N)ncnn23)[C@H](O)[C@@H]1O)OCc1cc(F)cc(C#N)c1 [Compound 78, ((2R,3S,4R,5S)-5-(4-aminopyrrolo[2,1-f][1,2,4]triazin-7-yl)-2-cyano-3,4-dihydroxytetrahydrofuran-2-yl)methyl ((R)-2-((3-cyano-5-fluorobenzyl)oxy)octadecyl) hydrogen phosphate] | 31 |  |  |  | 34.6 | 18400 | 27600 |
| CCCCCCCCCCCCCCC[C@H](COP(=O)(O)OC[C@@]1(C#N)O[C@@H](c2ccc3c(N)ncnn23)[C@H](O)[C@@H]1O)OCc1cc(F)cc(C#N)c1 [Compound 80, ((2R,3S,4R,5S)-5-(4-aminopyrrolo[2,1-f][1,2,4]triazin-7-yl)-2-cyano-3,4-dihydroxytetrahydrofuran-2-yl)methyl ((R)-2-((3-cyano-5-fluorobenzyl)oxy)heptadecyl) hydrogen phosphate] | 36 |  |  |  | > 50 | 21200 | 32400 |
| CCCCCCCCCCCCCCCCCC[C@H](COP(=O)(O)OC[C@@]1(C#N)O[C@@H](c2ccc3c(N)ncnn23)[C@H](O)[C@@H]1O)OCc1cc(Cl)cc(C#N)c1 [Compound 81, ((2R,3S,4R,5S)-5-(4-aminopyrrolo[2,1-f][1,2,4]triazin-7-yl)-2-cyano-3,4-dihydroxytetrahydrofuran-2-yl)methyl ((R)-2-((3-chloro-5-cyanobenzyl)oxy)icosyl) hydrogen phosphate] | 83 |  |  |  | 23 | 15900 | 10700 |
| CCCCCCCCCCCCCCCC[C@@H](COP(=O)(O)OC[C@@]1(C#N)O[C@@H](c2ccc3c(N)ncnn23)[C@H](O)[C@@H]1O)OCc1cc(F)cc(C#N)c1 [Compound 79, ((2R,3S,4R,5S)-5-(4-aminopyrrolo[2,1-f][1,2,4]triazin-7-yl)-2-cyano-3,4-dihydroxytetrahydrofuran-2-yl)methyl ((S)-2-((3-cyano-5-fluorobenzyl)oxy)octadecyl) hydrogen phosphate] | 19 |  |  |  | 38.1 | 20000 | 24300 |
| CCCCCCCCCCCCCCCCCCC[C@H](COP(=O)(O)OC[C@@]1(C#N)O[C@@H](c2ccc3c(N)ncnn23)[C@H](O)[C@@H]1O)OCc1cc(Cl)cc(C#N)c1 [Compound 82, ((2R,3S,4R,5S)-5-(4-aminopyrrolo[2,1-f][1,2,4]triazin-7-yl)-2-cyano-3,4-dihydroxytetrahydrofuran-2-yl)methyl ((R)-2-((3-chloro-5-cyanobenzyl)oxy)henicosyl) hydrogen phosphate] | 147 |  |  | 11300 | 29 | 19200 |  |
| CCCCCCCCCCCCCCCCCCOC[C@H](COP(=O)(O)OC[C@@]1(C#N)O[C@@H](c2ccc3c(N)ncnn23)[C@H](O)[C@@H]1O)OCc1cccc(C#N)n1 [Compound 68, ((2R,3S,4R)-5-(4-aminopyrrolo[2,1-f][1,2,4]triazin-7-yl)-2-cyano-3,4-dihydroxytetrahydrofuran-2-yl)methyl ((R)-2-((6-cyanopyridin-2-yl)methoxy)-3-(octadecyloxy)propyl) hydrogen phosphate] | 9 |  | 15200 | 11500 | 42.8 |  |  |
